Experimental data published in publication PMC7529893, “Structural basis for substrate recognition and chemical inhibition of oncogenic MAGE ubiquitin ligases” (Nature Communications, 2020).

target: T1, MAGE-A11:PCF11 interaction (GST-MAGE-A11 and FAM-PCF11_4) (Homo sapiens, UniProt P43364); assay: TR-FRET primary / single point screen at 15 µM; type: binding; details: single point TR-FRET screening of 797 quinoline compounds against MAGE-A11:PCF11
T1 construct: GST-MAGE-A11 MHD (human MAGE-A11 MHD amino acid 218-429); made in house; host or cells: E. coli BL21(DE3)
T1 sequence (P43364 218-429): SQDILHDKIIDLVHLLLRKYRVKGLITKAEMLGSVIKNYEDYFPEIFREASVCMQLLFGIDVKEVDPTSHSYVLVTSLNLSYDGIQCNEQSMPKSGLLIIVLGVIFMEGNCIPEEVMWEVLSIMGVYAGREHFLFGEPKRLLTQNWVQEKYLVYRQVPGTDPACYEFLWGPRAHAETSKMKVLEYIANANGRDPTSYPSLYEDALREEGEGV
How it was run: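 Single-point screen at 15 µM final compound in 50 mM Tris pH 7.5, 20 mM MgCl2, 0.1 mg/ml BSA, 1 mM DTT, with 200 nM FAM-PCF11_4, 5 nM Tb-anti-GST and 5 nM GST-MAGE-A11. After 90 min at room temperature, the 520/490 nm TR-FRET ratio (340 nm excitation) gave %Inhibition against no-MAGE-A11 and DMSO controls.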

Row | percent inhibition (TR-FRET) | Compound
1 | -271.121 | CCCN(CCCNc1c2ccc(Cl)cc2nc2ccc(OC)cc12)Cc1ccccc1OC [SJ000520950]
2 | -258.592 | CCCN(CCCNc1c2ccc(Cl)cc2nc2ccc(OC)cc12)Cc1ccccc1C(=O)O [SJ000520951]
3 | -129.124 | CCCN(CCCNc1c2ccc(Cl)cc2nc2ccc(OC)cc12)Cc1ccc2ccccc2c1 [SJ000520953]
4 | -157.809 | CCCN(CCCNc1c2ccc(Cl)cc2nc2ccc(OC)cc12)Cc1cccc(C)c1 [SJ000520954]
5 | -175.453 | CCCN(CCCNc1c2ccc(Cl)cc2nc2ccc(OC)cc12)Cc1ccc(OC)c(OC)c1 [SJ000520957]
6 | -267.24 | CCCN(CCCNc1c2ccc(Cl)cc2nc2ccc(OC)cc12)CCCc1ccccc1 [SJ000520958]
7 | -264.817 | CCCN(CCCNc1c2ccc(Cl)cc2nc2ccc(OC)cc12)CC(C)CC (stereo not shown) [SJ000520959]
8 | -119.324 | CCCN(CCCNc1c2ccc(Cl)cc2nc2ccc(OC)cc12)Cc1cc(C)ccc1C [SJ000520960]
9 | -244.583 | CCCN(CCCNc1c2ccc(Cl)cc2nc2ccc(OC)cc12)Cc1cccc(OC)c1 [SJ000520961]
10 | -591.727 | CCCN(CCCNc1c2ccc(Cl)cc2nc2ccc(OC)cc12)CCc1ccccc1 [SJ000520962]
11 | -153.702 | CCCCCCN(CCC)CCCNc1c2ccc(Cl)cc2nc2ccc(OC)cc12 [SJ000520963]
12 | -402.468 | COc1ccc2nc3cc(Cl)ccc3c(NCCCNCc3cccn3C)c2c1 [SJ000520985]
13 | -408.98 | COc1ccc2nc3cc(Cl)ccc3c(NCCCNCc3cccnc3)c2c1 [SJ000520986]
14 | -252.354 | COc1ccc2nc3cc(Cl)ccc3c(NCCCNCc3cn(C)c4ccccc34)c2c1 [SJ000520987]
15 | -355.207 | COc1ccc2nc3cc(Cl)ccc3c(NCCCNCc3nccs3)c2c1 [SJ000520989]
16 | -408.139 | COc1ccc2nc3cc(Cl)ccc3c(NCCCNCc3cccc(C(F)(F)F)c3)c2c1 [SJ000520990]

Row | percent inhibition (TR-FRET) | Compound
17 | -257.115 | COc1ccc2nc3cc(Cl)ccc3c(NCCCNCc3cccc4c3OCO4)c2c1 [SJ000520991]
18 | -200.963 | COc1ccc2nc3cc(Cl)ccc3c(NCCCNCc3ccc(OC(F)(F)F)cc3)c2c1 [SJ000520992]
19 | -365.36 | COc1ccc2nc3cc(Cl)ccc3c(NCCCNCc3cc(F)ccc3OC)c2c1 [SJ000520993]
20 | -456.31 | COc1ccc2nc3cc(Cl)ccc3c(NCCCNCCC(C)(C)C)c2c1 [SJ000520994]
21 | -405.549 | CCCCNCCCNc1c2ccc(Cl)cc2nc2ccc(OC)cc12 [SJ000520995]
22 | -287.642 | COc1ccc2nc3cc(Cl)ccc3c(NCCCNCc3cc(Br)cs3)c2c1 [SJ000520996]
23 | -146.701 | COc1ccc2nc3cc(Cl)ccc3c(NCCCNCc3cc4ccccc4o3)c2c1 [SJ000520997]
24 | -354.997 | COc1ccc(F)c(CNCCCNc2c3ccc(Cl)cc3nc3ccc(OC)cc23)c1 [SJ000520998]
25 | -116.734 | COc1ccc2nc3cc(Cl)ccc3c(NCCCNCc3c(F)cccc3C(F)(F)F)c2c1 [SJ000520999]
26 | -220.357 | COc1ccc2nc3cc(Cl)ccc3c(NCCCNCc3cc4ccccc4s3)c2c1 [SJ000521000]
27 | -231.84 | COc1ccc2nc3cc(Cl)ccc3c(NCCCNCc3cc(OC(F)(F)F)ccc3OC)c2c1 [SJ000521001]
28 | -290.163 | COc1ccc2nc3cc(Cl)ccc3c(NCCCNCc3cc(C(F)(F)F)ccc3OC)c2c1 [SJ000521002]
29 | -442.307 | COc1ccc2nc3cc(Cl)ccc3c(NCCCNCC3CCOC3)c2c1 (stereo not shown) [SJ000521003]
30 | -366.222 | COc1ccc2nc3cc(Cl)ccc3c(NCCCNCc3cccc(F)c3)c2c1 [SJ000521004]
31 | -390.355 | CCc1ccc(CNCCCNc2c3ccc(Cl)cc3nc3ccc(OC)cc23)cc1 [SJ000521005]
32 | -279.905 | COc1ccc2nc3cc(Cl)ccc3c(NCCCNCc3nccn3C)c2c1 [SJ000521006]

same assay, conditions: single point TR-FRET screening of quinoline compounds against MAGE-A11:PCF11; 15 µM

Row | percent inhibition (TR-FRET) | Compound
33 | 31.7696 | CCCN(CCCNc1ccnc2cc(C(F)(F)F)ccc12)Cc1ccc(CC)cc1 [SJ000521009]
34 | 0.8927 | CCCN(CCCNc1ccnc2cc(C(F)(F)F)ccc12)Cc1nc(C)cs1 [SJ000521010]
35 | 25.8235 | CCCN(CCCNc1ccnc2cc(C(F)(F)F)ccc12)CCOCc1ccccc1 [SJ000521011]
36 | 14.997 | CCCN(CCCNc1ccnc2cc(C(F)(F)F)ccc12)Cc1cc(F)cc(F)c1O [SJ000521012]
37 | 21.7574 | CCCN(CCCNc1ccnc2cc(C(F)(F)F)ccc12)Cc1ccc(OC)c(F)c1 [SJ000521013]
38 | 20.6371 | CCCN(CCCNc1ccnc2cc(C(F)(F)F)ccc12)Cc1cc(F)ccc1C [SJ000521014]
39 | 11.045 | CCCN(CCCNc1ccnc2cc(C(F)(F)F)ccc12)Cc1ccc(Cl)c(C(F)(F)F)c1 [SJ000521015]
40 | 18.9568 | Cn1cccc1CNCCCNc1ccnc2cc(Cl)ccc12 [SJ000521019]
41 | 18.4667 | Cn1cc(CNCCCNc2ccnc3cc(Cl)ccc23)c2ccccc21 [SJ000521020]
42 | 4.988 | Clc1ccc2c(NCCCNCc3nccs3)ccnc2c1 [SJ000521023]
43 | 9.225 | CC(C)(C)CCNCCCNc1ccnc2cc(Cl)ccc12 [SJ000521026]
44 | 8.4544 | CCCCNCCCNc1ccnc2cc(Cl)ccc12 [SJ000521027]
45 | 22.1075 | Clc1ccc2c(NCCCNCc3cc(Br)cs3)ccnc2c1 [SJ000521028]
46 | 17.9065 | Clc1ccc2c(NCCCNCc3cc4ccccc4o3)ccnc2c1 [SJ000521029]
47 | 30.1342 | Clc1ccc2c(NCCCNCc3cc4ccccc4s3)ccnc2c1 [SJ000521032]
48 | 33.3803 | Clc1ccc2c(NCCCNCc3csc4ccccc34)ccnc2c1 [SJ000521033]

Row | percent inhibition (TR-FRET) | Compound
49 | 4.695 | Clc1ccc2c(NCCCNCc3nc4ccccc4s3)ccnc2c1 [SJ000521034]
50 | 7.014 | Clc1ccc2c(NCCCNCc3cncc(Br)c3)ccnc2c1 [SJ000521037]
51 | 0.4026 | Clc1ccc2c(NCCCNCC3CCOC3)ccnc2c1 (stereo not shown) [SJ000521038]
52 | 1.449 | Cn1ccnc1CNCCCNc1ccnc2cc(Cl)ccc12 [SJ000521040]
53 | -6.879 | Cn1cccc1CNCCCNc1ccnc2cc(C(F)(F)F)ccc12 [SJ000521041]
54 | 15.0359 | FC(F)(F)c1ccc2c(NCCCNCc3cccnc3)ccnc2c1 [SJ000521042]
55 | 29.109 | Cn1cc(CNCCCNc2ccnc3cc(C(F)(F)F)ccc23)c2ccccc21 [SJ000521043]
56 | 19.5869 | COC(=O)CCCCCNCCCNc1ccnc2cc(C(F)(F)F)ccc12 [SJ000521044]
57 | 7.779 | FC(F)(F)c1ccc2c(NCCCNCc3nccs3)ccnc2c1 [SJ000521046]
58 | 27.3587 | CC(C)(C)CCNCCCNc1ccnc2cc(C(F)(F)F)ccc12 [SJ000521053]
59 | 18.5367 | CCCCNCCCNc1ccnc2cc(C(F)(F)F)ccc12 [SJ000521055]
60 | 32.7178 | FC(F)(F)c1ccc2c(NCCCNCc3cc(Br)cs3)ccnc2c1 [SJ000521056]
61 | 27.4843 | FC(F)(F)c1ccc2c(NCCCNCc3cc4ccccc4o3)ccnc2c1 [SJ000521057]
62 | 35.6327 | FC(F)(F)c1ccc2c(NCCCNCc3cc4ccccc4s3)ccnc2c1 [SJ000521060]
63 | 41.8599 | FC(F)(F)c1ccc2c(NCCCNCc3csc4ccccc34)ccnc2c1 [SJ000521061]
64 | 14.4336 | FC(F)(F)c1ccc2c(NCCCNCc3nc4ccccc4s3)ccnc2c1 [SJ000521062]

The next lines start with the compound.

Row | Compound | percent inhibition (TR-FRET)
65 | CCCN(CCCNc1c2ccc(Cl)cc2nc2ccc(OC)cc12)Cc1cccc([N+](=O)[O-])c1 [SJ000520948] | -10.7413
66 | CCCN(CCCNc1c2ccc(Cl)cc2nc2ccc(OC)cc12)Cc1ccc([N+](=O)[O-])cc1 [SJ000520949] | -9.039
67 | CCCN(CCCNc1c2ccc(Cl)cc2nc2ccc(OC)cc12)Cc1cccc2ccccc12 [SJ000520952] | -40.7667
68 | CCCN(CCCNc1c2ccc(Cl)cc2nc2ccc(OC)cc12)Cc1ccc(N(C)C)cc1 [SJ000520955] | -10.0604
69 | CCCN(CCCNc1c2ccc(Cl)cc2nc2ccc(OC)cc12)Cc1ccc(Cl)cc1Cl [SJ000520956] | 9.598
70 | COc1ccc2nc3cc(Cl)ccc3c(NCCCNCc3cccc(OC(F)(F)F)c3)c2c1 [SJ000520988] | -73.5426
71 | CCCN(CCCNc1ccnc2cc(C(F)(F)F)ccc12)Cc1cncc(Br)c1 [SJ000521007] | 4.323
72 | CCCN(CCCNc1ccnc2cc(C(F)(F)F)ccc12)Cc1cccc(F)c1 [SJ000521008] | 27.8488
73 | COC(=O)CCCCCNCCCNc1ccnc2cc(Cl)ccc12 [SJ000521021] | 39.1213
